# What was measured:
# [1] = target: T1, Solute carrier organic anion transporter family member 1B3 (Homo sapiens, UniProt Q9NPD5); assay: TP_TRANSPORTER: inhibition of BSP uptake in Xenopus laevis oocytes; format: functional, cell-based, Oocyte
# T1 sequence (Q9NPD5 whole entry): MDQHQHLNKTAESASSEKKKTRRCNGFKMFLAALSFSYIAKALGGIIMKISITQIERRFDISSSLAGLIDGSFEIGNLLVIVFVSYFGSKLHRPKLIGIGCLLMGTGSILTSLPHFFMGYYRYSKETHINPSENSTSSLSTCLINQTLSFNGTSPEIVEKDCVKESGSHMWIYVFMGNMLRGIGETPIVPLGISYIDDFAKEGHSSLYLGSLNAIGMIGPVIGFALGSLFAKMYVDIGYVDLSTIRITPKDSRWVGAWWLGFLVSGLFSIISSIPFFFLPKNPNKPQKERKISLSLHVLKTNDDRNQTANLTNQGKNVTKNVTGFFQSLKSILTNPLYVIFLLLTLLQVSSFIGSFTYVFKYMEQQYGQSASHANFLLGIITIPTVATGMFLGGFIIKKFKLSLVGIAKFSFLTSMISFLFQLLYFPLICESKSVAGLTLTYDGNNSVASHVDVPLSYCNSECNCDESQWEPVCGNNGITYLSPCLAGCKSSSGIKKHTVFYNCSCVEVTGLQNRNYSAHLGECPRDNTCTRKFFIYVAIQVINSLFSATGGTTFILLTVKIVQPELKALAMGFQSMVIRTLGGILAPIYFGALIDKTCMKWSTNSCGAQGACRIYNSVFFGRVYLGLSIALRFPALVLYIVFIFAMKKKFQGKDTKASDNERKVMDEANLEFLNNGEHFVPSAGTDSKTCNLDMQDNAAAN
# [2] = target: T2, Solute carrier organic anion transporter family member 1A2 (Homo sapiens, UniProt P46721); assay: TP_TRANSPORTER: inhibition of E1S uptake (E1S: 0.05 uM, GL: 100 uM) by Glycyrrhizic acid at a concentration of 100 u M in Xenopus laevis oocytes; format: functional, cell-based; conditions: oocyte
# T2 sequence (P46721 whole entry): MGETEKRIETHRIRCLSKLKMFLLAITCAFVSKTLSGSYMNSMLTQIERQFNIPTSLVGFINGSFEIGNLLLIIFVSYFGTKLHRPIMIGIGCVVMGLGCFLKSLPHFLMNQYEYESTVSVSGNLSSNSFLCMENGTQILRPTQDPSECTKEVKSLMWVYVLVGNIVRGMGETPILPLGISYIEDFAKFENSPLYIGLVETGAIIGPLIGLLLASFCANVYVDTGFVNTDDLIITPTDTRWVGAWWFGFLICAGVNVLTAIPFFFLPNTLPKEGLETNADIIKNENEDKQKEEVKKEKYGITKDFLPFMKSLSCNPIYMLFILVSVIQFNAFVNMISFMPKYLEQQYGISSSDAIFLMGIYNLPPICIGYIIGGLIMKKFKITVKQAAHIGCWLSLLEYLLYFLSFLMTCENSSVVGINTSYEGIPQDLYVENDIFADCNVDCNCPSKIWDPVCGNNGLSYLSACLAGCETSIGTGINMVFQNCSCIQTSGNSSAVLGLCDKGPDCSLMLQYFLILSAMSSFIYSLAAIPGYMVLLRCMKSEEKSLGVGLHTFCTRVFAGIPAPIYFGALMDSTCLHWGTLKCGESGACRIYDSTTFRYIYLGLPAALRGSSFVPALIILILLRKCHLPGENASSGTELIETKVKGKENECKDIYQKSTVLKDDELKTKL
# [3] = target: T3, Solute carrier organic anion transporter family member 1A1 (Rattus norvegicus, UniProt P46720); assay: (§1) TP_TRANSPORTER: inhibition of E1S uptake (E1S: 0.05 uM, GL: 100 uM) in Xenopus laevis oocytes; format: functional, cell-based; design: scale not given: the % may be the effect or the level left; conditions: oocyte
# T3 sequence (P46720 whole entry): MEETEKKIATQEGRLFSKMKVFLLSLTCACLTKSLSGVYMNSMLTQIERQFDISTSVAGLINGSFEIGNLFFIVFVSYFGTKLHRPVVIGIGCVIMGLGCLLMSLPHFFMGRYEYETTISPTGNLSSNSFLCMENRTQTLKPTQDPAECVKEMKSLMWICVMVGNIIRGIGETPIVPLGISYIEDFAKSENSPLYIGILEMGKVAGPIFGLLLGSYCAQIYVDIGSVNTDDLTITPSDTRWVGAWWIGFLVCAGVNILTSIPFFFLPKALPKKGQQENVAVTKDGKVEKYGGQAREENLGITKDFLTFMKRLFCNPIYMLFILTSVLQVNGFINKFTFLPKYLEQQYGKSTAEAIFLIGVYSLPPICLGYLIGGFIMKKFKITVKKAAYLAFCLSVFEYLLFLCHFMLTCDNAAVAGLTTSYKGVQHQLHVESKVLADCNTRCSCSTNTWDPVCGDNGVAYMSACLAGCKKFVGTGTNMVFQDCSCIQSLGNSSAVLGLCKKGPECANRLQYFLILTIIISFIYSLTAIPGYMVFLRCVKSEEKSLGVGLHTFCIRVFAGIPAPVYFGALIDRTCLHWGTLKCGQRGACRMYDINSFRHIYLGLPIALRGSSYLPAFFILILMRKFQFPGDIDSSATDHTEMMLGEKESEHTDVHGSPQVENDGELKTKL
# [4] = target: T4, Solute carrier organic anion transporter family member 2B1 (Homo sapiens, UniProt O94956); assay: TP_TRANSPORTER: inhibition of E1S uptake (E1S: 0.05 uM, GL: 100 uM) of Glycyrrhizic acid at a concentration of 100 u M in Xenopus laevis oocytes; format: functional, cell-based; conditions: oocyte
# T4 sequence (O94956 whole entry): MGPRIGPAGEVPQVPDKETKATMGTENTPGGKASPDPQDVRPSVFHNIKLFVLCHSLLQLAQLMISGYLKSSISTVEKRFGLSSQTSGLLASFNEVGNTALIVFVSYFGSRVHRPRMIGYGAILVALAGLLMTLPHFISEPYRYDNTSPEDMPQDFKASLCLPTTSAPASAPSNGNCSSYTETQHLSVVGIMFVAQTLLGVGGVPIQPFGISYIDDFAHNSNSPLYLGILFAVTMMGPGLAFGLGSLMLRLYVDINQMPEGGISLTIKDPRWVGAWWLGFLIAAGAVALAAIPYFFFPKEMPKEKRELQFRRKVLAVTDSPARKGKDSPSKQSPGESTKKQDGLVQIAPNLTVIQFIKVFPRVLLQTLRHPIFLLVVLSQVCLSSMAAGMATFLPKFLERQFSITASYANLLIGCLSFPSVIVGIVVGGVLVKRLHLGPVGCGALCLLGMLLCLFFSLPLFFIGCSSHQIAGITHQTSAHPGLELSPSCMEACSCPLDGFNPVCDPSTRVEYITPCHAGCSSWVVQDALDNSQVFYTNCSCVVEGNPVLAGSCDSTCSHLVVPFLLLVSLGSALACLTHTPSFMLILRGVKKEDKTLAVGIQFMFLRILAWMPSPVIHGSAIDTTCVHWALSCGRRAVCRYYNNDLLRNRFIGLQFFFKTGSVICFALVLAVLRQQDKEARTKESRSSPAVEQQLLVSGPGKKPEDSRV
# [5] = target: T5, Solute carrier organic anion transporter family member 1B1 (Homo sapiens, UniProt Q9Y6L6); assay: (§2) TP_TRANSPORTER: inhibition of E1S uptake in Xenopus laevis oocytes; format: functional, cell-based, Oocyte
# T5 sequence (Q9Y6L6 whole entry): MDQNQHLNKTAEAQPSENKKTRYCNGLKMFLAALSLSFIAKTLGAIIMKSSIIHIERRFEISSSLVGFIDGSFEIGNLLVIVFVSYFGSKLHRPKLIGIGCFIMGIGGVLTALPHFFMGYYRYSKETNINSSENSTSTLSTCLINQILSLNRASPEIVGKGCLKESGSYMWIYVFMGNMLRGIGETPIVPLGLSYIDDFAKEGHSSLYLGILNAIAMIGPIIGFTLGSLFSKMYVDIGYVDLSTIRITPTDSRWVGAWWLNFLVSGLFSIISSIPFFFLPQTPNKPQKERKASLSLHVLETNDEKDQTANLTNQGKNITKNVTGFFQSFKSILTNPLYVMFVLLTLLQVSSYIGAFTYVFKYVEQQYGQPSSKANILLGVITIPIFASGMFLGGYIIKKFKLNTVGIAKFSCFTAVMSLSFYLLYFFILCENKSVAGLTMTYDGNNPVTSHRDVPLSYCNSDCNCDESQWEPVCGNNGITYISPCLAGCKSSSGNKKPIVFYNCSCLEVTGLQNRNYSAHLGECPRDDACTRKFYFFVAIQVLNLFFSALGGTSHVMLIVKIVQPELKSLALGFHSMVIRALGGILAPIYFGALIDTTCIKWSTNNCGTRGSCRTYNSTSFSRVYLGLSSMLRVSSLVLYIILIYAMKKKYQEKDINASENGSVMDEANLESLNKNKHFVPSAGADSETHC
# [6] = target: T6, Solute carrier organic anion transporter family member 1B2 (Rattus norvegicus, UniProt Q9QZX8); assay: as §2; format: functional, cell-based, Oocyte
# T6 sequence (Q9QZX8 whole entry): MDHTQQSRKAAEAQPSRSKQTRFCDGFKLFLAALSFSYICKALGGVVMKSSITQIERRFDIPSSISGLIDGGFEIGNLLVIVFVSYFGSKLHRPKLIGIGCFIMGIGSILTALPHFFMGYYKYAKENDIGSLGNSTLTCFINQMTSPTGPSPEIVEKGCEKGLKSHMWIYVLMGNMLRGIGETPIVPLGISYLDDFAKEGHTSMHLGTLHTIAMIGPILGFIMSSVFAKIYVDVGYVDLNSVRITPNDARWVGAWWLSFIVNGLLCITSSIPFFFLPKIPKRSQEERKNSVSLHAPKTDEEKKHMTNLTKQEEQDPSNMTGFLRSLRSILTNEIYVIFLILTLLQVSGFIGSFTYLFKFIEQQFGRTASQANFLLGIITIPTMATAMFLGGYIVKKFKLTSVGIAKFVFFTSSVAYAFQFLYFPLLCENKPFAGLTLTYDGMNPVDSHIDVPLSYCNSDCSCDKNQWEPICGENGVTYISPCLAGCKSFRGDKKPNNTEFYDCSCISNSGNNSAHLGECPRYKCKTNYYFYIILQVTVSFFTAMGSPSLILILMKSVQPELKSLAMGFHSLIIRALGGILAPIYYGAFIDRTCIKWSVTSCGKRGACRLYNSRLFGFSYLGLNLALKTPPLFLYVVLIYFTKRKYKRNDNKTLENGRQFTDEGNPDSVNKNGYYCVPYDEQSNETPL
# [7] = target: T7, Solute carrier organic anion transporter family member 1A4 (OATP1A4) (Rattus norvegicus, UniProt O35913); assay: as §1; format: functional, cell-based, Oocyte; design: scale not given: the % may be the effect or the level left; conditions: Xenopus laevis oocytes expressing OATP1A4, probe E1S (0.05 uM), read-out: Activity
# T7 sequence (O35913 whole entry): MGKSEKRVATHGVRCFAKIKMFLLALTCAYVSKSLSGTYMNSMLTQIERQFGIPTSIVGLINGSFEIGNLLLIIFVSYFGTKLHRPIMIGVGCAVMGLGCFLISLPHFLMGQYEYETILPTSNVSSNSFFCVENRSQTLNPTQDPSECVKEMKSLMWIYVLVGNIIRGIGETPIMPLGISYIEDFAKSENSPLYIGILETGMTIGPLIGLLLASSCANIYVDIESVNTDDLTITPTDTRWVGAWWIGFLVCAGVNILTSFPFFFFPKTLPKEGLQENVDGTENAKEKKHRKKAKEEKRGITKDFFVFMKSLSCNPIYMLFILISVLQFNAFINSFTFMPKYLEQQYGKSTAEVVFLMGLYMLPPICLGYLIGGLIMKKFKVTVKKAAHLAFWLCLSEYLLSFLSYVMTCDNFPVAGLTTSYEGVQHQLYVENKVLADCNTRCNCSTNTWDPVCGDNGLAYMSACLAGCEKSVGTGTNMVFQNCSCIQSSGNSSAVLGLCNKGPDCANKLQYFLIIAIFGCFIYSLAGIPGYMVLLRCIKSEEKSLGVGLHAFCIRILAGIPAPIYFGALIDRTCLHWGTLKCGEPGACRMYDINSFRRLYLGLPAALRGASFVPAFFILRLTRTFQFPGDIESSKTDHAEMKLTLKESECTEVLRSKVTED
# [8] = target: T8, Solute carrier organic anion transporter family member 1A5 (OATP1A5) (Rattus norvegicus, UniProt O88397); assay: as §1; format: functional, cell-based, Oocyte; design: scale not given: the % may be the effect or the level left; conditions: Xenopus laevis oocytes expressing OATP1A5, probe E1S (0.05 uM), read-out: Activity
# T8 sequence (O88397 whole entry): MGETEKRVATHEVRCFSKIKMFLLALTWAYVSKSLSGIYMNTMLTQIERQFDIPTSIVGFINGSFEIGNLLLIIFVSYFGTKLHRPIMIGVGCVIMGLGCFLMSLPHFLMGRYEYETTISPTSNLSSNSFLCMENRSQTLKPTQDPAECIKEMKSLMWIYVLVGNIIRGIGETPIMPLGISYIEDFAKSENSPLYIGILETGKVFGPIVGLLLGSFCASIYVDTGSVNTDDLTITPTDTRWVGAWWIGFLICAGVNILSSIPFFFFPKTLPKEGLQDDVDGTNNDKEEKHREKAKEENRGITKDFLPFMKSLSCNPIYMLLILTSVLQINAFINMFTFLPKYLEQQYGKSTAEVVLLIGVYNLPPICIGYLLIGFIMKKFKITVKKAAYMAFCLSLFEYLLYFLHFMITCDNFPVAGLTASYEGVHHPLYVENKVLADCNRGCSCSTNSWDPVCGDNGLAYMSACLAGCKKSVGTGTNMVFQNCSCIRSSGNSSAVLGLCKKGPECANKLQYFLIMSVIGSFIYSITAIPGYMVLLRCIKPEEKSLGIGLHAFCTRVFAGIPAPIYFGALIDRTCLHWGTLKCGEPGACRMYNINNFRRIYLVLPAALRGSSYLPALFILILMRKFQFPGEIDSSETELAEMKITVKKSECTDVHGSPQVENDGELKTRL
# [9] = target: T9, Solute carrier organic anion transporter family member 1B3 (OATP1B3) (Homo sapiens, UniProt Q9NPD5); assay: as §1; format: functional, cell-based, Oocyte; design: scale not given: the % may be the effect or the level left; conditions: Xenopus laevis oocytes expressing OATP1B3, probe E1S (0.05 uM), read-out: Activity
# T9 sequence (Q9NPD5 whole entry): T1 sequence (Q9NPD5 whole entry)
smiles,measurement,setting,value
CC1(C)[C@@H](O[C@H]2O[C@H](C(=O)O)[C@@H](O)[C@H](O)[C@H]2O[C@@H]2O[C@H](C(=O)O)[C@@H](O)[C@H](O)[C@H]2O)CC[C@]2(C)[C@H]3C(=O)C=C4[C@@H]5C[C@@](C)(C(=O)O)CC[C@]5(C)CC[C@@]4(C)[C@]3(C)CC[C@@H]12 [GLYCYRRHIZIN],Ki,[1],12.5 µM
same,Activity,[2],is not an inhibitor [-]
same,Activity,[3],52%
same,Activity,[4],is not an inhibitor [-]
same,Ki,[5],15.9 µM
same,Ki,[6],6.1 µM
same,activity at 100 µM,[7],47%
same,activity at 100 µM,[8],51%
same,activity at 100 µM,[9],0%

# Source: ChEMBL document CHEMBL2074181, “Interactions of glycyrrhizin with organic anion transporting polypeptides of rat and human liver” (Hepatol Res, 2003)
